Assay results from patent US6699869B1, “β-sheet mimetics and use thereof as inhibitors of biologically active peptides or proteins” (Myriad Genetics Inc., priority 1995, dated 2004).

Experiments:
bovine thrombin = target: T1, bovine thrombin (Bos taurus, UniProt P00735); assay: thrombin assay, hydrolysis of structure (11b) as proteolytic substrate; format: biochemical; settings: for kcat/KM (thrombin): bovine thrombin, 37° C.
T1 construct: bovine thrombin (from Sigma); purchased Sigma
Procedure: (§1) Both the thrombin and Factor VII assays of this experiment were carried out at 37° C. using a Hitachi UV/Vis spectrophotometer (model U-3000). Structure (11b) was dissolved in deionized water. The concentration was determined from the absorbance at 342 nm. […] Initial velocities were calculated from the initial linear portion of the reaction progress curve. Kinetic parameters were determined by unweighted nonlinear least-squares fitting of the simple Michaelis-Menten equation to the experimental data using GraFit (Version 3.0, Erithacus Software Limited).
For the thrombin assay, experiments were performed in pH 8.4 Tris buffer (Tris, 0.05M; NaCl, 0.15M). 6.4 NIH units of bovine thrombin (from Sigma) were dissolved into 10 ml of the assay buffer to yield 10 nM thrombin solution. […] The first two minutes of the reactions were recorded for initial velocity determination.

[1] = target: T2, human Factor VIIa (FVIIa) and human tissue factor (TF) (Homo sapiens, UniProt P08709); assay: Factor VII assay, hydrolysis of structure (11b) as proteolytic substrate; format: biochemical; settings: for kcat/KM (Factor VII): human FVIIa and TF, pH 8.0 Tris buffer, 37° C.
T2 construct: human Factor VIIa (FVIIa)
Procedure: as §1
For the Factor VII assay, pH 8.0 Tris buffer (0.05 M Tris, 5 mM CaCl2, 0.15 M NaCl, 0.1% TWEEN 20, 0.1% BSA) was used. 10 μl of 20 μM human Factor VIIa (FVIIa) and 22 μM of human tissue factor (TF) was brought to assay buffer to make 160 nM FVIIa and TF solutions, respectively. […] The initial 3 minutes reaction progress curves were recorded. […] The kcat/KM was, calculated from the slope and found to be 17,500 M^−1 s^−1.

control plasma = assay: prothrombin time (PT) in control plasma; settings: compared with PPACK
Procedure: Then 200 μl of prewarmed (at 37° C. for ˜10 minutes) thromboplastin with calcium (from Sigma) was rapidly added into the plasma sample.

aPTT and TT = assay: pharmacodynamic study in rats (aPTT and TT of plasma samples); format: in vivo, rat; settings: male Sprague Dawley rats, 4 mg/kg IV and 10 mg/kg PO
Procedure: Specifically, a pharmacodynamic and pharmacokinetic study of structure (20b) was conducted in male Sprague Dawley rats. […] Groups of rats (n=3 or 4) were sacrificed and exsanguinated at 0.25, 0.5, 1, 2, 4 and 8 hours following dosing. Efficacy parameters, aPTT and TT; were measured for each plasma sample.

T2 sequence (P08709 213-466 limits assumed): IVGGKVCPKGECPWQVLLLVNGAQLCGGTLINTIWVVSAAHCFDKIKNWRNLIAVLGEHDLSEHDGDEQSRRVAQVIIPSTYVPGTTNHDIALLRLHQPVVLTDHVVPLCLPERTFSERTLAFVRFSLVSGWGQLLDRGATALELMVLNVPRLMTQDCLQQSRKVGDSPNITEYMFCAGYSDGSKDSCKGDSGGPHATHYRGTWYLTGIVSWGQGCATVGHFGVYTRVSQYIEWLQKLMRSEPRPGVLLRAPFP
T2 sequence (P08709 61-212 partner limits assumed): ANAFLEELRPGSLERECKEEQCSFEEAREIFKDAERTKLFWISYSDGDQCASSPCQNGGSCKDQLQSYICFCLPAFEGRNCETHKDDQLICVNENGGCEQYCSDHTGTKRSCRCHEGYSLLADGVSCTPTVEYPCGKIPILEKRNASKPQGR
T2 sequence (P13726 33-251 partner limits assumed): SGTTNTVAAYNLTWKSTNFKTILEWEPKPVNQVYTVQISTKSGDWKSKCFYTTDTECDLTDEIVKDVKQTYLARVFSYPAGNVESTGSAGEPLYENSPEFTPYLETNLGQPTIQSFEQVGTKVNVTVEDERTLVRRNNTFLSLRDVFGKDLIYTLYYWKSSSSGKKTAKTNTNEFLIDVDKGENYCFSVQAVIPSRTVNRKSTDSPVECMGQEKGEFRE

SMILES | kcat/KM (thrombin) (bovine thrombin) | kcat/KM (Factor VII) [1] | other results
NC(N)=NCCCC(NC(=O)C1CCCN1C(=O)C(N)Cc1ccccc1)C(=O)Nc1ccc([N+](=O)[O-])cc1 (centres unmarked) [(D)FPR-PNA, reference compound] | 2.2e+07 M⁻¹ s⁻¹ | 12700 M⁻¹ s⁻¹ | 
N=C(N)NCCC[C@H](NC(=O)[C@@H]1CCN2CC[C@@](N)(Cc3ccccc3)C(=O)N12)C(=O)Nc1ccc([N+](=O)[O-])cc1 [Structure (11b)] | 1.67e+07 M⁻¹ s⁻¹ | 17,500 M^−1 s^−1 | Activity compared to the control (D)FPR-PNA, thrombin (bovine thrombin; ratio of kcat/KM to control): 0.76; Activity compared to the control (D)FPR-PNA, Factor VII ([1]; ratio of kcat/KM to control): 1.38
N=C(N)NCCC[C@H](NC(=O)[C@@H]1CCN2CC[C@@](N)(Cc3ccccc3)C(=O)N12)C(=O)CCl [Structure (13b)] |  |  | time required to form clot (PT), in words (control plasma): comparable with PPACK
N=C(N)NCCC[C@H](NC(=O)[C@@H]1CCN2CC[C@@](N)(Cc3ccccc3)C(=O)N12)C(=O)c1nc2ccccc2s1 [Structure (20b)] |  |  | in vivo efficacy (aPTT and TT) (aPTT and TT): in vivo efficacy
